Measurements: patent US20260125374A1, “PI3K-ALPHA INHIBITORS AND METHODS OF MAKING AND USING THE SAME” (Relay Therapeutics, Inc., priority 2021, published 2026)
Marks after values point to notes of the source that are not given here.

How the values were obtained:
[1] = Salt screening (XRPD, chiral purity of hits); type: physicochemical
Experimental: Based on the pKa of I-1 free form, 23 counter ions were selected as salt/cocrystal forming agents. Methanol, acetone and isopropyl acetate were used as screening solvents. 1.0 equivalent of selected counter ions/coformers was applied for salt screening. Slurry equilibration, slow evaporation and anti-solvent addition were used as crystallization methods. In total, about 70 screening experiments were conducted.
About 50 mg of I-1 Form A were added to a suitable amount of solvent and 1.0 equivalent of counter ions were added under stirring at 50° C. for 2 hours and then at 25° C. for at least 12 hours. MeOH, acetone and IPAc were used as screening solvents.
Obtained suspensions were taken out and centrifuged. Solids obtained were analyzed by XRPD and salt screening results were summarized in Table 5.1, Table 5.2, and Table 5.3.

[2] = Light and glassware influence on racemization of II-1; type: physicochemical
Experimental: The effect of glassware surface pH and light on II-1 racemization was evaluated.

[3] = Polymorph screening (equilibration, anti-solvent, slow evaporation, slow cooling, temperature cycling, heating-cooling; XRPD and SFC); type: physicochemical; conditions: for ee %(SFC): 6 days
Experimental: This polymorph screening program of compound I-1 free form was performed with two batches of the pure enantiomer. Both batches are crystalline and is assigned as Form A. The polymorphic behaviors of the enantiomer were investigated by equilibration at 25° C. and 50° C., equilibration under a temperature cycle, crystallization from hot saturated solutions by slow cooling, slow evaporation, precipitation by addition of anti-solvent, and DSC heating-cooling cycle experiments. Relative stability of identified polymorphs was investigated by competitive slurry experiments.
(§1) About 50 mg of I-1 Form A was weighed into a 2 mL glass vial and equilibrated in suitable amount of solvents (pretreated by molecular sieves) at 25° C. for 2 weeks with a stirring plate and with protection from light. Obtained suspensions were filtered with 0.45 μm nylon membrane and the solid parts (wet cake) were investigated by XRPD. When differences were observed, additional investigations were performed (e.g. DSC, TGA, ^1H-NMR, SFC).
as §1, with “into” for “into a”, “vials” for “vial”, “50°” for “25°”, “10 days” for “2 weeks”, “investigation was” for “investigations were”
I-1 Form A was dissolved in a good solvent. […] The solvents used were pretreated by molecular sieve. Precipitates were collected by filtration. The solid part (wet cake) was investigated by XRPD. […] When differences were observed, additional investigations were performed (e.g. DSC, TGA, ^1H-NMR, SFC).
Based on approximate solubility results, I-1 Form A was dissolved in suitable amount of solvents (pretreated by molecular sieves). Obtained solutions were filtered by 0.45 μm nylon filter. […] Solid residues were examined for their polymorphic form. When differences were observed, additional investigations were performed (e.g. DSC, TGA, ^1H-NMR, SFC).
Approximate 50 mg of batch I-1 Form A were dissolved in the minimal amount of selected solvents (without pretreatment by molecular sieves) at 50° C. Obtained solutions were filtered by 0.45 μm nylon filter. […] Precipitates were collected by filtration. The solid parts (wet cake) were investigated by XRPD. When differences were observed, additional investigations were performed (e.g. DSC, TGA, ^1H-NMR, SFC). When no precipitation was obtained or only a few solids were obtained, the solutions were placed at 5° C. for crystallization.
About 50 mg of I-1 Form A was equilibrated in different solvents (pretreated by molecular sieves) under a temperature cycle between 5° C. to 50° C. at a heating/cooling rate of 0.2° C./min for 10 cycles and with protection from light. After 10 cycles, precipitates were collected at 5° C. by filtration. The solid parts (wet cake) were investigated by XRPD. When differences were observed, additional investigations were performed (e.g. DSC, TGA, 1H-NMR, SFC).
Polymorphic behavior of I-1 Form A was investigated by two different heating-cooling cycles of DSC. Cycle 1:30° C. to 280° C. at 10° C./min; 280° C. to −20° C. at 20° C./min; reheat to 300° C. at 10° C./min. Cycle 2:30° C. to 280° C. at 10° C./min; 280° C. to-20° C. at 2° C./min; reheat to 300° C. at 10° C./min.

[4] = cited from earlier work
[5] = crystalline hits of salt screening, listed as I-2 Form A
[6] = crystalline hits of salt screening, listed as III-2 Form A
[7] = crystalline hits of salt screening, listed as III-2 Form B
[8] = equilibration of II-1 in 1,4-dioxane, 50° C.
[9] = crystalline hits of salt screening, listed as III-6 Form A
[10] = crystalline hit dried at 50° C. for 21 h
[11] = crystalline hits of salt screening, listed as I-5 Form A
[12] = crystalline hits of salt screening, listed as I-5 Form B

N#Cc1c(-c2cc(NC(=O)c3cc(F)cc(C(F)(F)F)c3)c3c(c2)C(=O)N[C@H]3c2cc(F)ccc2Cl)ccc2ncnn12 [Compound I-2]
Salt screening result (slurry crystallization) ([1]; 1.0 equiv. HCl, Isopropyl acetate): + (Salt hits) | Chiral purity (by HPLC) [1, 5]: 89.7% | Crystallinity (By XRPD) [1, 5]: Low | Chiral purity of salt screening solid ([1]; slurry, 1.0 equiv. HCl, Isopropyl acetate): Chiral purity: 89.7%

N#Cc1c(-c2cc(NC(=O)c3cc(F)cc(C(F)(F)F)c3)c3c(c2)C(=O)NC3c2cc(F)ccc2Cl)ccc2ncnn12 (stereo not shown) [III-2]
Salt screening result (slurry crystallization) ([1]; 1.0 equiv. HCl, ACN (second block of table)): + (III-2 Form B) (Salt hits) | Salt screening result (slurry crystallization) ([1]; 1.0 equiv. HCl, Acetone): + (III-2 Form A) (Salt hits) | Salt screening result (slurry crystallization) ([1]; 1.0 equiv. HCl, Acetone (second block of table)): + (III-2 Form A) (Salt hits) | Chiral purity (by HPLC) [1, 6]: 30.8% | Crystallinity (By XRPD) [1, 6]: Medium | Chiral purity (by HPLC) [1, 7]: 20.3% | Crystallinity (By XRPD) [1, 7]: Low | Chiral purity of salt screening solid ([1]; slurry, 1.0 equiv. HCl, ACN (second block of table)): Chiral purity: 20.2% | Chiral purity of salt screening solid ([1]; slurry, 1.0 equiv. HCl, Acetone): Chiral purity: 30.8% | Chiral purity of salt screening solid ([1]; slurry, 1.0 equiv. HCl, Acetone (second block of table)): Chiral purity: 45.4%

N#Cc1c(-c2cc(NC(=O)c3cc(F)cc(C(F)(F)F)c3)c3c(c2)C(=O)N[C@@H]3c2cc(F)ccc2Cl)ccc2ncnn12 [II-1, (S)-N-(3-(2-chloro-5-fluorophenyl)-6-(5-cyano-[1,2,4]triazolo[1,5-a]pyridin-6-yl)-1-oxoisoindolin-4-yl)-3-fluoro-5-(trifluoromethyl)benzamide]
racemization in solution ([2]; basic glassware, promoted by light): Noticeable racemization | racemization in solution ([2]; neutral and acidic glassware, absence and presence of light, up to 13 days): no significant racemization | XRPD (6 days) [3, 8]: II-1 Form B | ee %(SFC) [3, 8]: ee %(SFC): −99.48%* | ee %(SFC) ([3]; equilibration of II-1 in ACN/water(80:20, v/v), 50° C.): ee %(SFC): −99.24%* | ee %(SFC) ([3]; equilibration of II-1 in EtOH/water(50:50, v/v), 50° C.): ee %(SFC): −99.78%* | ee %(SFC) ([3]; equilibration of II-1 in Methanol, 50° C.): ee %(SFC): −99.66%* | XRPD (6 days) ([3]; equilibration of II-1 in THF/water(85:15, v/v) a.w. 0.9, 25° C.): II-1 Form C (include the | ee %(SFC) ([3]; equilibration of II-1 in THF/water(85:15, v/v), 25° C.): ee %(SFC): −99.34%*

N#Cc1c(-c2cc(NC(=O)c3cc(F)cc(C(F)(F)F)c3)c3c(c2)C(=O)NC3c2cc(F)ccc2Cl)ccc2ncnn12 (stereo not shown) [III-6]
Salt screening result (slurry crystallization) ([1]; 1.0 equiv. naphthalene-2-sulfonic acid, Acetone): + (Salt hits) | Chiral purity (by HPLC) [1, 9]: 43.2% | Crystallinity (By XRPD) [1, 9]: low | Chiral purity of salt screening solid ([1]; slurry, 1.0 equiv. naphthalene-2-sulfonic acid, Acetone): Chiral purity: 43.2%

O=S(=O)(O)c1ccc2ccccc2c1 [Naphthalene-2-sulfonic acid]
pKa(s) [4]: 0.17

N#Cc1c(-c2cc(NC(=O)c3cc(F)cc(C(F)(F)F)c3)c3c(c2)C(=O)N[C@H]3c2cc(F)ccc2Cl)ccc2ncnn12 [Compound I-5]
Salt screening result (anti-solvent) ([1]; 1.0 equiv. naphthalene-1,5-disulfonic acid, Acetone/MTBE): + (I-5 Form B) (Salt hits) | Chiral purity of salt screening solid ([1]; anti-solvent, 1.0 equiv. naphthalene-1,5-disulfonic acid, Acetone/MTBE): Chiral purity: 88.3% | Chiral purity (by HPLC) [1, 10]: C. for 21 h: 100% | Crystallinity (By XRPD) [1, 10]: low crystallinity | Chiral purity (by HPLC) [1, 11]: 100% dried at 50° | Crystallinity (By XRPD) [1, 11]: Medium crystallinity | Chiral purity (by HPLC) [1, 12]: 88.3% | Crystallinity (By XRPD) [1, 12]: Medium

O=C(O)CC(O)(CC(=O)O)C(=O)O [Citric acid]
pKa(s) [4]: 3.12, 4.76, 6.39
